# Results: ChEMBL document CHEMBL3616471, “Synthesis and in vitro antitumor evaluation of betulin acid ester derivatives as novel apoptosis inducers” (Eur J Med Chem, 2015)
# Activity calls are given as the source filed them. The rule behind the calls is not given here.
# Tests used:
# PC-3 [1] = experiment: Ratio of betulin IC50 to compound IC50 for human PC3 cells; type: functional
# Bcap37 [2] = experiment: Selectivity index, ratio of IC50 for mouse NIH/3T3 cells to IC50 for human Bcap37 cells; type: functional
# MGC-803 [3] = experiment: Induction of apoptosis in human MGC803 cells assessed as cell budding at 5 uM after 12 to 48 hrs using acridine orange/ethidium bromide staining by fluorescence microscopic analysis; type: functional, cell-based
# [4] = Cytotoxicity against mouse NIH/3T3 cells after 72 hrs by MTT assay; type: cell-based; details: nih3t3, 72 h
# A-375 [5] = experiment: Cytotoxicity against human A375 cells after 72 hrs by MTT assay; type: functional, cell-based
# MGC-803 [6] = experiment: Induction of apoptosis in human MGC803 cells assessed as apoptotic bodies at 5 uM after 12 to 48 hrs using Hoechst 33258 staining by fluorescence microscopic analysis; type: functional, cell-based
# MCF7 [7] = experiment: Selectivity index, ratio of IC50 for mouse NIH/3T3 cells to IC50 for human MCF7 cells; type: functional
# MGC-803 [8] = experiment: Induction of apoptosis in human MGC803 cells assessed as chromatin condensation at 5 uM after 12 to 48 hrs using Hoechst 33258 staining by fluorescence microscopic analysis; type: functional, cell-based
# MGC-803 [9] = experiment: Selectivity index, ratio of IC50 for mouse NIH/3T3 cells to IC50 for human MGC803 cells; type: functional
# MGC-803 [10] = experiment: Ratio of betulin IC50 to compound IC50 for human MGC803 cells; type: functional
# MGC-803 [11] = experiment: Cytotoxicity against human MGC803 cells after 72 hrs by MTT assay; type: functional, cell-based
# MGC-803 [12] = experiment: Induction of apoptosis in human MGC803 cells assessed as apoptosis ratio at 10 uM after 36 hrs using annexin-V and propidium iodide staining by flow cytometry; type: functional
# MGC-803 [13] = experiment: Induction of apoptosis in human MGC803 cells assessed as pyknosis at 5 uM after 12 to 48 hrs using acridine orange/ethidium bromide staining by fluorescence microscopic analysis; type: functional, cell-based
# MCF7 [14] = experiment: Ratio of betulin IC50 to compound IC50 for human MCF7 cells; type: functional
# PC-3 [15] = experiment: Cytotoxicity against human PC3 cells after 72 hrs by MTT assay; type: functional, cell-based
# A-375 [16] = experiment: Ratio of betulin IC50 to compound IC50 for human A375 cells; type: functional
# MGC-803 [17] = experiment: Induction of apoptosis in human MGC803 cells assessed as membrane blebbing at 5 uM after 12 to 48 hrs using acridine orange/ethidium bromide staining by fluorescence microscopic analysis; type: functional, cell-based
# MGC-803 [18] = experiment: Induction of apoptosis in human MGC803 cells assessed as apoptotic cells at 5 uM after 12 to 48 hrs using Hoechst 33258 staining by fluorescence microscopic analysis; type: functional, cell-based
# MGC-803 [19] = experiment: Induction of apoptosis in human MGC803 cells assessed as apoptosis ratio at 10 uM using annexin-V and propidium iodide staining by flow cytometry; type: functional, cell-based; details: TDE = time-dependent effect
# MCF7 [20] = experiment: Cytotoxicity against human MCF7 cells after 72 hrs by MTT assay; type: functional, cell-based
# Bcap37 [21] = experiment: Cytotoxicity against human Bcap37 cells after 72 hrs by MTT assay; type: functional, cell-based
# MGC-803 [22] = experiment: Induction of apoptosis in human MGC803 cells assessed as formation of nicks in DNA at 5 uM after 48 hrs by TUNNEL assay; type: functional, cell-based
# PC-3 [23] = experiment: Selectivity index, ratio of IC50 for mouse NIH/3T3 cells to IC50 for human PC3 cells; type: functional
# Bcap37 [24] = experiment: Ratio of betulin IC50 to compound IC50 for human Bcap37 cells; type: functional
# A-375 [25] = experiment: Selectivity index, ratio of IC50 for mouse NIH/3T3 cells to IC50 for human A375 cells; type: functional
structure (smiles),measurement,setting,value
C=C(C)[C@@H]1CC[C@]2(COC(=O)CCC(=O)N3CCCCC3)CC[C@]3(C)[C@H](CC[C@@H]4[C@@]5(C)CC[C@H](O)C(C)(C)[C@@H]5CC[C@]43C)[C@@H]12,Ratio IC50,PC-3 [1],4
same,Ratio IC50,Bcap37 [2],6.81
same,Activity,MGC-803 [3],Active
same,Activity,[4],Non-toxic
same,Activity,A-375 [5],Dose-dependent effect
same,IC50,"A-375 [5]; A-375, 72 h",7.5 µM
same,Activity,MGC-803 [6],Active
same,Ratio IC50,MCF7 [7],6.8
same,Activity,MGC-803 [8],Active
same,Ratio IC50,MGC-803 [9],8.23
same,Ratio IC50,MGC-803 [10],4
same,Activity,MGC-803 [11],Dose-dependent effect
same,IC50,"MGC-803 [11]; MGC-803, 72 h",4.3 µM
same,Activity,MGC-803 [12],31.11%
same,Activity,MGC-803 [13],Active
same,Ratio IC50,MCF7 [14],4
same,Activity,PC-3 [15],Dose-dependent effect
same,IC50,"PC-3 [15]; PC-3, 72 h",4.5 µM
same,Ratio IC50,A-375 [16],4
same,Activity,MGC-803 [17],Active
same,Activity,MGC-803 [18],Active
same,Activity,MGC-803 [19],tde
same,Activity,MCF7 [20],Dose-dependent effect
same,IC50,"MCF7 [20]; MCF7, 72 h",5.2 µM
same,Activity,Bcap37 [21],Dose-dependent effect
same,IC50,"Bcap37 [21]; Bcap37, 72 h",5.2 µM
same,Activity,MGC-803 [22],Active
same,Ratio IC50,PC-3 [23],7.86
same,Ratio IC50,Bcap37 [24],4
same,Ratio IC50,A-375 [25],4.72
